pEC50, pIC50: −log10 of the molar value. Where only a bound is given, the exact number is not on record here.

Test [1] addresses T1, K-Ras G12C mutant protein (Homo sapiens, UniProt P01116, G12C).
T1 construct: K-Ras G12C (residues 2-188) and SOS1 (residues 564-1049) had N-terminal 6-His; made in house; host or cells: E. coli
Briefly: K-Ras G12C HTRF assay. Format: biochemical. Conditions: Table 1; unit or assay not given; several values in one cell. The method, then: In the above definition of R^2, the electrophilic moiety that is capable of forming a covalent bond with a cysteine residue is determined via K-Ras G12C-alkylation studies and Homogeneous Time Resolved Fluorescence (HTRF) assays. The G12C mutation of the K-Ras gene is a change in amino acid from glycine to cysteine at the 12th amino acid. The compounds according to the present disclosure were discovered using the HTRF assay and the K-Ras G12C-alkylation assay, as further detailed elsewhere herein below, and then NMR spectroscopy was later used to validate the specificity with which the molecule was attaching to G12C.
In general terms: In TR-FRET formats the signal depends on donor and acceptor labels being close together.

Test [2] addresses T2, K-Ras G12C (Homo sapiens, UniProt P01116, G12C). Nature of the test: K-Ras G12C, SOS1, Raf RBD HTRF assay for inhibition of GTP exchange. The test is classed as biochemical. Conditions: 18 hours preincubation with K-Ras G12C at room temperature; SOS1-mediated GTP exchange. Details: K-Ras G12C (residues 2-188) and SOS1 (residues 564-1049) had N-terminal 6-His; made in house; host or cells: E. coli. Summed up: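 After 18 h at room temperature with compound, SOS1 (1.25 nM final) started exchange to GTP (150 μM final). C-Raf RBD, Tb-anti-FLAG and D2-anti-his (50, 1 and 12.5 nM) were then added. The 665/615 nm HTRF ratio was read after 2 h; buffer was HEPES/NaCl, 1 mM MgCl2, BSA, Tween-20 and DTT.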
Target sequence in this assay (P01116 2-188 isoform P01116-2 G12C): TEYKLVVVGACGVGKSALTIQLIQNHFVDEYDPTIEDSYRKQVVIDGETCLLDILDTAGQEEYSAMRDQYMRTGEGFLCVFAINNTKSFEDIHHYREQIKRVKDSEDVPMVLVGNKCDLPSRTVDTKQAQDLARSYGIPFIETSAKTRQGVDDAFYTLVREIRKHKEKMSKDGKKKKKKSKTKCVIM

The target of test [3] is T2, K-Ras G12C. Briefly: Western blot assay for in cell alkylation of K-Ras G12C (HCC1171 cells). Format: cell-based. Further details: endogenous in cells; host or cells: HCC1171. To be noted: 18 hours at 37° C., 7 point dose response. The essentials: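 HCC1171 cells exposed to compounds for 18 h at 37° C, lysed, and analysed by SDS-PAGE/western blot with anti-K-Ras antibody and fluorescent secondary. Alkylated K-Ras separated by band shift; % alkylation = FI(alkylated)/(FI(alkylated)+FI(unalkylated))×100, IC50 from 7-point dose response.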
Target sequence in this assay (P01116 1-188 isoform P01116-2 G12C): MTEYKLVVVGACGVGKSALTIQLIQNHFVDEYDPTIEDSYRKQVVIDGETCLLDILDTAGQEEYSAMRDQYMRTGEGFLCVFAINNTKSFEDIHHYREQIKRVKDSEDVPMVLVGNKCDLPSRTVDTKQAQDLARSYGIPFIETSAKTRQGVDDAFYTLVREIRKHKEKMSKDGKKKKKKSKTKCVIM

T1 sequence (P01116 2-188 isoform P01116-2 G12C): as the sequence (P01116 2-188 isoform P01116-2 G12C) above

Usually pIC50 stands for the IC50 on a negative log10 scale, so that one unit is a factor of ten. Higher therefore signals a small IC50. On to `C=CC(=O)N1CCN(c2ncnc3c2CC(C)C(c2nc(N)cc(C)c2C(F)(F)F)C3)CC1` (single isomer, unassigned) [Example 1, 1-(4-(7-(6-amino-4-methyl-3-(trifluoromethyl)pyridin-2-yl)-6-methyl-5,6,7,8-tetrahydroquinazolin-4-yl)piperazin-1-yl)prop-2-en-1-one], for which, in test [1], the negative-log IC50 (pIC50) was under 4.30.

In turn, `C=CC(=O)N1CCC(C#N)(c2nc(OCC3CCCN3C)nc3c2CCC(c2cc(O)cc4ccccc24)C3)CC1` (stereo not drawn) [Example 7, 1-acryloyl-4-(7-(3-hydroxynaphthalen-1-yl)-2-((1-methylpyrrolidin-2-yl)methoxy)-5,6,7,8-tetrahydroquinazolin-4-yl)piperidine-4-carbonitrile] showed a pIC50 in test [1] of 7.06. `COc1ccc(CN(Cc2ccc(OC)cc2)c2cc(C)c(I)c(C3Cc4nc(OCC5CCCN5C)nc(N5CCN(C(=O)OC(C)(C)C)CC5C)c4CC3C)c2F)cc1` (stereo not drawn) [Example 14, tert-butyl 4-(7-(3-(bis(4-methoxybenzyl)amino)-2-fluoro-6-iodo-5-methylphenyl)-6-methyl-2-((1-methylpyrrolidin-2-yl)methoxy)-5,6,7,8-tetrahydroquinazolin-4-yl)-3-methylpiperazine-1-carboxylate] gave a pIC50 in test [1] of under 4.30. In test [1], `C=CC(=O)N1CCN(c2nc(OCC3CCCN3C)nc3c2CC(C)C(c2c(C)ccc4[nH]ncc24)C3)CC1` (stereo not drawn) [Example 18, 1-(4-(6-methyl-7-(5-methyl-1H-indazol-4-yl)-2-((1-methylpyrrolidin-2-yl)methoxy)-5,6,7,8-tetrahydroquinazolin-4-yl)piperazin-1-yl)prop-2-en-1-one] showed a pIC50 of 7.62. In turn, `C=CC(=O)N1CCN(c2nc(OCC3CCCN3C)nc3c2CCC2(CCCCC2)C3)CC1` (stereo not drawn) [Example 25, 1-(4-(2′-((1-methylpyrrolidin-2-yl)methoxy)-5′,8′-dihydro-6′H-spiro[cyclohexane-1,7′-quinazolin]-4′-yl)piperazin-1-yl)prop-2-en-1-one] showed a negative logarithm of the IC50 (pIC50) in test [1] of 5.27. The pEC50 is the EC50 on a negative log10 scale, so that one unit is a factor of ten. High values mean a low EC50, low ones a high EC50. With `C=CC(=O)N1CCN(c2ncnc3c2CCC(c2nc(N)cc(C)c2C(F)(F)F)C3)CC1` (stereo not drawn) [Example 26, 1-[4-[7-[6-amino-4-methyl-3-(trifluoromethyl)-2-pyridyl]-5,6,7,8-tetrahydroquinazolin-4-yl]piperazin-1-yl]prop-2-en-1-one], the pIC50 in test [2] was 6.57. Further, the pEC50 in test [3] is 5.66. For `C=CC(=O)N1CCN(c2ncnc3c2CC[C@H](c2nc(N)cc(C)c2C(F)(F)F)C3)CC1` [Example 26a, (S)-1-(4-(7-(6-amino-4-methyl-3-(trifluoromethyl)pyridin-2-yl)-5,6,7,8-tetrahydroquinazolin-4-yl)piperazin-1-yl)prop-2-en-1-one], in that order: 6.74 and 5.92. `C=CC(=O)N1CCN(c2ncnc3c2CC[C@@H](c2nc(N)cc(C)c2C(F)(F)F)C3)CC1` [Example 26b, (R)-1-(4-(7-(6-amino-4-methyl-3-(trifluoromethyl)pyridin-2-yl)-5,6,7,8-tetrahydroquinazolin-4-yl)piperazin-1-yl)prop-2-en-1-one]: the negative logarithm of the IC50 (pIC50) in test [2] was 5.32. The same molecule gave a negative logarithm of the EC50 (pEC50) in test [3] of 4.77.

In the case of `C=CC(=O)N1CCN(c2nc(OCC3CCCN3C)nc3c2CCCC3)CC1` (stereo not drawn) [Example 45, 1-(4-(2-((1-methylpyrrolidin-2-yl)methoxy)-5,6,7,8-tetrahydroquinazolin-4-yl)piperazin-1-yl)prop-2-en-1-one], in test [1], the negative-log IC50 (pIC50) is under 4.30. Consider `CN1CCCC1COc1nc2c(c(N3CCN(C(=O)/C=C/CNC45CC(C4)C5)C(CC#N)C3)n1)CCC(c1cccc3ccccc13)C2` (stereo not drawn) [Example 48, (E)-2-(1-(4-(bicyclo[1.1.1]pentan-1-ylamino)but-2-enoyl)-4-(2-((1-methylpyrrolidin-2-yl)methoxy)-7-(naphthalen-1-yl)-5,6,7,8-tetrahydroquinazolin-4-yl)piperazin-2-yl)acetonitrile], for which the pIC50 in test [1] was 7.96. In turn, `CN1CCC[C@H]1COc1nc2c(c(N3CCN(C(=O)/C=C/CNC45CC(C4)C5)[C@@H](CC#N)C3)n1)CCC(c1cccc3ccccc13)C2` (stereo partly drawn) [Example 48a, 2-((2S)-1-((E)-4-(bicyclo[1.1.1]pentan-1-ylamino)but-2-enoyl)-4-(2-(((S)-1-methylpyrrolidin-2-yl)methoxy)-7-(naphthalen-1-yl)-5,6,7,8-tetrahydroquinazolin-4-yl)piperazin-2-yl)acetonitrile] had a negative-log IC50 (pIC50) in test [2] of 7.96. Also, the negative logarithm of the EC50 (pEC50) in test [3] is 6.82. Turning to `C=CC(=O)N1CCN(c2nc(OCC3CCCN3C)nc3c2CCC(c2cc(O)cc4ccccc24)C3)CC1` (stereo not drawn) [Example 49, 1-(4-(7-(3-hydroxynaphthalen-1-yl)-2-((1-methylpyrrolidin-2-yl)methoxy)-5,6,7,8-tetrahydroquinazolin-4-yl)piperazin-1-yl)prop-2-en-1-one], the pIC50 in test [1] was 7.64. In test [2], `C=CC(=O)N1CCN(c2nc(OC[C@@H]3CCCN3C)nc3c2CCC(c2cc(O)cc4ccccc24)C3)CC1` (stereo partly drawn) [Example 49a, 1-[4-[7-(3-hydroxy-1-naphthyl)-2-[[(2S)-1-methylpyrrolidin-2-yl]methoxy]-5,6,7,8-tetrahydroquinazolin-4-yl]piperazin-1-yl]prop-2-en-1-one] had a pIC50 of 7.64. This molecule gave a pEC50 in test [3] of 6.77.

In test [1], `C=CC(=O)Oc1cc(C2CCc3c(nc(OCC4CCCN4C)nc3N3CCN(C(=O)C=C)CC3)C2)c2ccccc2c1` (stereo not drawn) [Example 50, 4-(4-(4-acryloylpiperazin-1-yl)-2-((1-methylpyrrolidin-2-yl)methoxy)-5,6,7,8-tetrahydroquinazolin-7-yl)naphthalen-2-yl acrylate] showed a pIC50 of 6.80. In turn, `C=CC(=O)Oc1cc(C2CCc3c(nc(OC[C@@H]4CCCN4C)nc3N3CCN(C(=O)C=C)CC3)C2)c2ccccc2c1` (stereo partly drawn) [Example 50a, 4-(4-(4-acryloylpiperazin-1-yl)-2-(((S)-1-methylpyrrolidin-2-yl)methoxy)-5,6,7,8-tetrahydroquinazolin-7-yl)naphthalen-2-yl acrylate] gave a pIC50 in test [2] of 6.80. In test [3], this molecule showed a negative-log EC50 (pEC50) of 6.77. In turn, `C=CC(=O)N1CCN(c2nc(OCC[C@@H]3CCCN3C)nc3c2CCC(c2cc(O)cc4ccccc24)C3)CC1` (stereo partly drawn) [Example 52a, 1-(4-(7-(3-hydroxynaphthalen-1-yl)-2-(2-((S)-1-methylpyrrolidin-2-yl)ethoxy)-5,6,7,8-tetrahydroquinazolin-4-yl)piperazin-1-yl)prop-2-en-1-one] showed a pIC50 in test [2] of 7.29. This molecule showed a pEC50 in test [3] of 6.00. As for `C=CC(=O)N1CCN(c2nc(OCCCN3CCOCC3)nc3c2CCC(c2cc(O)cc4ccccc24)C3)[C@@H](C)C1` (stereo partly drawn) [Example 53a, 1-((3S)-4-(7-(3-hydroxynaphthalen-1-yl)-2-(3-morpholinopropoxy)-5,6,7,8-tetrahydroquinazolin-4-yl)-3-methylpiperazin-1-yl)prop-2-en-1-one], the pIC50 in test [2] was 7.66. In test [3], this molecule gave a pEC50 of 6.64. Turning to `C=CC(=O)N1CCN(c2nc(OCC3CCC(=O)N3)nc3c2CCC(c2cc(O)cc4ccccc24)C3)[C@@H](C)C1` (stereo partly drawn) [Example 55a, 5-(((4-((S)-4-acryloyl-2-methylpiperazin-1-yl)-7-(3-hydroxynaphthalen-1-yl)-5,6,7,8-tetrahydroquinazolin-2-yl)oxy)methyl)pyrrolidin-2-one], in test [2], the negative-log IC50 (pIC50) is 5.85. In test [3], this molecule had a negative-log EC50 (pEC50) of 5.17. For the molecule `C=CC(=O)N1C[C@H](C)N(c2nc(OC[C@@H]3CCCN3C)nc3c2CCC(c2cc(O)cc4ccccc24)C3)[C@@H](C)C1` (stereo partly drawn) [Example 56a, 1-((3S,5S)-4-(7-(3-hydroxynaphthalen-1-yl)-2-(((S)-1-methylpyrrolidin-2-yl)methoxy)-5,6,7,8-tetrahydroquinazolin-4-yl)-3,5-dimethylpiperazin-1-yl)prop-2-en-1-one], in test [2], the pIC50 is 7.14. In test [3], this molecule showed a negative-log EC50 (pEC50) of 6.21. In turn, `C=CC(=O)N1CCN(c2nc(OC[C@@H]3CCCN3C)nc3c2CCC(c2cc(O)cc4ccccc24)C3)CC1CC#N` (stereo partly drawn) [Example 58a, 2-(1-acryloyl-4-(7-(3-hydroxynaphthalen-1-yl)-2-(((S)-1-methylpyrrolidin-2-yl)methoxy)-5,6,7,8-tetrahydroquinazolin-4-yl)piperazin-2-yl)acetonitrile] showed a pIC50 in test [2] of 7.55. The pEC50 in test [3] is 8.00.

In test [2], `C=CC(=O)Oc1cc(C2CCc3c(nc(OC[C@@H]4CCCN4C)nc3N3CCN(C(=O)C=C)C(CC#N)C3)C2)c2ccccc2c1` (stereo partly drawn) [Example 59a, 4-(4-(4-acryloyl-3-(cyanomethyl)piperazin-1-yl)-2-(((S)-1-methylpyrrolidin-2-yl)methoxy)-5,6,7,8-tetrahydroquinazolin-7-yl)naphthalen-2-yl acrylate] gave a pIC50 of 6.60. In addition, the negative-log EC50 (pEC50) in test [3] is 7.54.

Values taken from US11760744B2, “Fused ring compounds” (Genentech, Inc., priority 2018, dated 2023).
